# Source: patent EP0846119B1, “THIENOPYRIMIDINE DERIVATIVES, THEIR PRODUCTION AND USE AS ENDOTHELIN ANTAGONISTS” (Takeda Chemical Industries, Ltd., priority 1995, dated 1997)
# Where two headings read alike, the source gives them in different places.
# Columns and labels:
# [1] = target: T1, human endothelin-A (ETA) receptors (Homo sapiens, UniProt P25101); assay: Binding Test to ETA receptor expressed in an insect cell Sf9 ([125I]endothelin-1 displacement)
# T1 construct: made in house; host or cells: Sf9 insect cells (membrane fractions)
# T1 sequence (P25101 21-427): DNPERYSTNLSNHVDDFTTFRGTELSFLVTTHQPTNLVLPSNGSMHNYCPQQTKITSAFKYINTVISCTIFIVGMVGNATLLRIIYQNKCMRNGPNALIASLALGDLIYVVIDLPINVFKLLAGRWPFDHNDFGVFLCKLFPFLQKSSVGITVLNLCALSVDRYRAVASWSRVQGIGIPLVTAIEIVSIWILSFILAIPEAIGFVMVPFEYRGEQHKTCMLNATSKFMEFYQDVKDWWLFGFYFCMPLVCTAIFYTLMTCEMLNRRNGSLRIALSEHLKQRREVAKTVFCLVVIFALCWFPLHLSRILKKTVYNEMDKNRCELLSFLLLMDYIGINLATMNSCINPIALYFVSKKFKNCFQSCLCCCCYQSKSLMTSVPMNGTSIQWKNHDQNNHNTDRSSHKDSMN
# Procedure: Binding Test to ETA receptor expressed in an insect cell Sf9:
# Endothelin (ET) receptors were prepared by diluting fractions of insect cell (Sf9) membrane having human endothelin-A (ETA) receptors expressed, with an assay buffer {20 mM Tris-HCl, 2 mM EGTA (ethyleneglycol bls(2-aminoethylether) tetra acetic acid), 5 mM magnesium acetate, 0.1% BSA (bovine serum albumin), 0.03% NaN3, 0.5 mM PMSF (phenyl methyl sulfonyl fluoride), 20 µg/ml leupeptin, 4 µg/ml E-64 (products of the Peptide Institute, Japan), 1 µg/ml pepstatin, (pH 7.2)} respectively in a concentration of 1.4 µg/ml in the former case and 0.7 µg/ml in the latte case.
# To 100 µl of each portion was added 5 nM[^125I] endothelin-1 (2 µl). A dimethylsulfoxide solution (3 µl) of the test compound was added thereto and incubated at 25°C for 60 minutes.
# And, to determine the maximum binding amount (B0) and non-specific binding amount (NSB), lots to which a dimethyl sulfoxide solution (3 µl) or a dimethyl sulfoxide solution (3 µl) containing endothelin-1 (10^-3M) had been added, were also incubated.
# These lots were supplemented with 0.05% CHAPS(3-[(3-chloroamidopropyl)dimethylammonio]-1-propanesulfonate)-assay buffer (1.5 ml), subjected to filtration through a glass fiber filter GF/F (trade name; product of Whatman Ltd. (England)), and then washed with the same buffer (1.5 ml)).
# Radioactivity on the filter was counted in a gamma-counter to determine the Percent Maximum Binding (PMB) in accordance with the aforesaid calculation formula. The concentration causing PMB=50% was determined as IC50 value.
# [2] = tested on: coronary vein where ETB is expressed; assay: Inhibition Test on coronary vein where ETB is expressed (S6c-induced constriction of ring samples); conditions: Sus scrofa, porcine coronary vein ring, pre-treatment 30 minutes, relative to vehicle group, read-out: % inhibition (MEAN ± S.E.M.) (n=) vein (S6c 1 nM); for inhibition at 0.1 µM: compound 0.1 µM; for inhibition at 10 µM: compound 10 µM
# Procedure: Inhibition Test on coronary vein where ETB is expressed:
# 3-mm ring samples for vehicle group and drug-treating group were prepared by removing fat and connective tissue from coronary vein enucleated from porcine heart and obtained from the adjacent portions thereof. The samples, hanging in Magnus tube filled with Krebs solution, were stabilized for 90 minutes under 0.5 g static tension. After subjecting the samples to constriction for 10 minutes by potassium chloride (KCl) (60 mM) to obtain the maximum reaction, the samples were washed and stabilized for 60 minutes. After pre-treating compound obtained in Example 5 or Compound 16 of Example 11 or vehicle (H2O) for 30 minutes, S6c (1 nM) (S6c: sarafotoxin S6c, peptide type snake toxin consisting of 21 amino acids, it is useful for the selective agonist to ETB receptor owing to the similarity of its structure to endothelin) was added to observe the maximum constriction.
# The constriction efficiency (% KCl) of S6c was calculated as a relative value to KCl constriction of each sample which was regarded as 100%. Further, the inhibiting efficiency was calculated from the constriction efficiency of the drug-treating group calculated as a relative value to the constriction of the vehicle group which was regarded as 100%.
# [3] = target: T2, human ETB endothelin receptor (Homo sapiens, UniProt P24530); assay: Binding Test to ETB receptor expressed in CHO cell (ET-1-stimulated [3H]arachidonic acid release); type: cell-based; conditions: CHO cell expressing human ETB (ETB 12 cells), final concentration of ET-1 6.3x10^-10M, n=2
# T2 construct: expressed in transfected cells; host or cells: CHO cells (clone ETB 12)
# T2 sequence (P24530 27-442): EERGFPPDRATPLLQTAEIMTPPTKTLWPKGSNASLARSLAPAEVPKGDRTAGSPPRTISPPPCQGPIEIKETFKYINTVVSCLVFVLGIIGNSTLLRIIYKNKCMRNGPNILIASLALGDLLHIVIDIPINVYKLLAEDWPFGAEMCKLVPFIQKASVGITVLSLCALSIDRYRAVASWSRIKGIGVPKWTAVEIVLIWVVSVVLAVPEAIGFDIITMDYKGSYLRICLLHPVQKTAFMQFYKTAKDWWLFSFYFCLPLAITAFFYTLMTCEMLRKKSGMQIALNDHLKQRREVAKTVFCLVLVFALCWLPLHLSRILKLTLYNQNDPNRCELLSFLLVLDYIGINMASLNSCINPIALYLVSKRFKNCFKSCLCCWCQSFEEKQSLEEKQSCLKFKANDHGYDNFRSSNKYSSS
# Procedure: Binding Test to ETB receptor expressed in CHO cell:
# cells: CHO cell expressing human ETB endothelin receptor, i.e. ETB 12 cells medium: DMEM 10% FCS Gln, nonessential amino acids, penicillin, streptomycin
# Cells were seeded in 12 wells of 24 well plates at a density of 2x10^5 cells/well (1 ml medium/well). On the next day, [^3H]arachidonic acid was added to each well to be 250 nCi(nanocurie)/ml. On the next day, the medium was sucked from the wells by the use of an aspirator to remove free arachidonic acid and floating cells, and then 0.5 ml of medium was added. This procedure was repeated agian. After allowing to stand for 30minutes in a CO2 incubator, the medium was exchanged rapidly.
# The sample of compound obtained in Example 5 or compound 16 of Example 11 was stepwise diluted with a buffer solution for dilution, containing 3.15x10^-8M endothelin-1 (ET-1) {20 mM Tris, 5mM Mg(AcO)2, 2 mM EGTA, 0.03% NaN3, 0.1% BSA, 0.05% CHAPS}. 10 µl of the solution was added to each well (final concentration of ET-1: 6.3x10^-10M). […] After allowing to-stand for 30 minutes in the CO2 incubator, the medium was completely collected and the radio activity of [^3H]arachidonic acid released in the medium was measured by a liquid scintillation counter. IC50 values were calculated by Hill Plot from the concentration and relative reaction value of each sample.
# [4] = Sf9 membrane fractions, [125I]endothelin-1, 25°C, 60 minutes, concentration causing PMB=50%, read-out: IC50 value: µM Human endotherin-A receptor
# [5] = Table 5, values recur in Table 7, read-out: Binding IC50 (µM) ETA
SMILES,"IC50 [1, 4]","IC50 [1, 5]",inhibition at 0.1 µM [2],inhibition at 10 µM [2],IC50 [3]
"CCS(=O)(=O)NCc1c(-c2ccc(OCOC)cc2)sc2c1c(=O)n(CC(=O)O)c(=O)n2Cc1ccccc1SC [11(16), 2,4(1H,3H)-Dioxo-6-(4-methoxymethoxyphenyl)-1-(2-methylthiobenzyl)-5-(ethanesulfonamidomethyl)thieno[2,3-d]pyrimidine-3-acetic acid]",0.0061 µM,0.0061 µM,53.3 ± 4.4%,98 ± 1.1%,130 nM
"COCOc1ccc(-c2sc3c(c2CNS(C)(=O)=O)c(=O)n(CC(=O)O)c(=O)n3Cc2ccccc2SC)cc1 [Example 5, 2,4(1H,3H)-dioxo-6-(4-methoxymethoxyphenyl)-1-(2-methylthiobenzyl)-5-(methanesulfonamidomethyl)thieno[2,3-d]pyrimidine-3-aretic acid]",0.011 µM,0.0076 µM,73.4 ± 3.1%,100%,490 nM
